Laboratory results reported in patent US20090137664A1, “SAURURUS CERNUUS COMPOUNDS THAT INHIBIT CELLULAR RESPONSES TO HYPOXIA” (priority 2003, published 2009).

How the values were obtained:
[1] = system: tumor cell lines; assay: NCI in vitro 60-cell line antitumor testing, GI50 pattern; assay type: cell-based; conditions: GI50 60-cell line pattern
Method: (§1) For exemplary purposes, an embodiment of the present invention was tested for activity with respect to certain cancer cell lines. The following Tables show results from in vitro 60-cell line antitumor testing from the US National Cancer Institute Developmental Therapeutics Program (NCI-DTP) on compound 2. The testing was in connection with the NCI's In Vitro Cell Line Screening Project (IVCLSP). Detailed information regarding the experiments and their interpretation is available from the NCI.
Table 2 depicts the GI50 mean bar graph for tumor cell lines, grouped into various categories (such as colon, breast, etc.) The data are arranged to display the relative response selectivity of each cell line relative to one other. This form of data display is used to examine the relative tumor specificity of a text compound. The curves represent the response of each tumor cell line when treated with compound 2.
Antitumor agents with tumor-specific selectivity are highly desired, in order to reduce the incidence of non-selective cytotoxicity to patients. […] This is of special importance since this NCI/ADR-RES cell line is resistant to many currently used antitumor agents such as adriamycin, taxol, and others.

[2] = system: SK-MEL-2; assay: NCI in vitro cell line screen (SRB), Melanoma SK-MEL-2; assay type: cell-based
Method: as §1

[3] = system: ACHN; assay: NCI in vitro cell line screen (SRB), Renal Cancer ACHN; assay type: cell-based
Method: as §1

[4] = system: HOP-92; assay: NCI in vitro cell line screen (SRB), Non-Small Cell Lung Cancer HOP-92; assay type: cell-based
Method: as §1

[5] = system: secreted VEGF protein; assay: hypoxic induction of secreted VEGF protein in T47D cells (ELISA); assay type: cell-based, human
Method: The effects of compounds 1 and 2 on hypoxic induction of secreted VEGF protein are examined in T47D cells. Exponentially grown T47D cells are plated at the density of 30,000 cells/well into 96-well plates. Compound treatment and hypoxic exposure are the same as described. Following incubation, the concentration of secreted VEGF protein in the conditioned media is determined by ELISA (R & D Systems) and the data normalized by the number of viable cells. Results shown in FIG. 4 are averages from a representative experiment performed in quadruplicate, the bars represent standard error. An asterisk (*) indicates the level of significance (p<0.01) relative to the hypoxic control, two asterisks (**) (p<0.0001), and no asterisk indicates no statistical difference (ANOVA and Fisher's PLSD post hoc test).
As discussed earlier, one important HIF-1 target gene is VEGF, a key factor for tumor angiogenesis. Compounds that can inhibit both HIF-1 activation and the production of secreted VEGF protein represent potential efficacious chemotherapeutic agents that inhibit both tumor survival and hypoxia induced angiogenesis. The effects of four active examples (compounds 2, 3, 4, and 5) on hypoxic induction of secreted VEGF protein are examined in T47D cells and the data are presented in FIG. 9. Exponentially grown T47D cells are plated at the density of 356,000 cells/well into 12-well plates. Compound treatment and hypoxic exposure are the same as described. Following incubation, the concentration of secreted VEGF protein in the conditioned media is determined by ELISA (R & D Systems) and the data normalized by the number of viable cells. […] Hypoxic exposure leads to a 2-fold increase in the level of secreted VEGF protein. […] The level of significance (p<0.01) is determined by ANOVA and Fisher's PLSD post hoc test. The exemplary compounds 2, 3, and 4 all completely block hypoxic induction of secreted VEGF protein at concentrations as low as 10 nM. The exemplary compound 5 inhibits the hypoxic induction by 60% at 10 nM, and completely blocks at 100 nM. When tested at 100 nM, none of the compounds interfere with the ELISA assay using VEGF standard (no greater than 15% difference).

[6] = system: EKVX; assay: NCI in vitro cell line screen (SRB), Non-Small Cell Lung Cancer EKVX; assay type: cell-based
Method: as §1

[7] = system: SW-620; assay: NCI in vitro cell line screen (SRB), Colon Cancer SW-620; assay type: cell-based
Method: as §1

[8] = system: K-562; assay: NCI in vitro cell line screen (SRB), Leukemia K-562; assay type: cell-based
Method: as §1

[9] = Homo sapiens, read-out: LC50 (the source's name)

COc1ccc([C@@H](O)[C@@H](C)Oc2ccc([C@H]3O[C@H](c4ccc(O[C@H](C)[C@H](O)c5ccc6c(c5)OCO6)c(OC)c4)[C@H](C)[C@H]3C)cc2OC)cc1OC [Compound 2, manassantin B]
selectivity for tumor cell lines [1]: up to 10,000 fold | TGI [2]: >1.00E−4 Molar | GI50 ([2]; Homo sapiens): > 100 µM | CC50 [2, 9]: > 100 µM | Mean Optical Densities ([2]; Log10 Concentration −4.0 Molar): 0.764 | Percent Growth ([2]; Log10 Concentration −4.0 Molar): 54% | Mean Optical Densities ([2]; Log10 Concentration −5.0 Molar): 0.928 | Percent Growth ([2]; Log10 Concentration −5.0 Molar): 78% | Mean Optical Densities ([2]; Log10 Concentration −6.0 Molar): 1.066 | Percent Growth ([2]; Log10 Concentration −6.0 Molar): 98% | Mean Optical Densities ([2]; Log10 Concentration −7.0 Molar): 0.900 | Percent Growth ([2]; Log10 Concentration −7.0 Molar): 74% | Mean Optical Densities ([2]; Log10 Concentration −8.0 Molar): 1.020 | Percent Growth ([2]; Log10 Concentration −8.0 Molar): 92% | TGI [3]: 5.02E−5 Molar | GI50 ([3]; Homo sapiens): 1.82 µM | CC50 [3, 9]: > 100 µM | Mean Optical Densities ([3]; Log10 Concentration −4.0 Molar): 0.297 | Percent Growth ([3]; Log10 Concentration −4.0 Molar): −5% | Mean Optical Densities ([3]; Log10 Concentration −5.0 Molar): 0.351 | Percent Growth ([3]; Log10 Concentration −5.0 Molar): 11% | Mean Optical Densities ([3]; Log10 Concentration −6.0 Molar): 0.554 | Percent Growth ([3]; Log10 Concentration −6.0 Molar): 64% | Mean Optical Densities ([3]; Log10 Concentration −7.0 Molar): 0.644 | Percent Growth ([3]; Log10 Concentration −7.0 Molar): 88% | Mean Optical Densities ([3]; Log10 Concentration −8.0 Molar): 0.590 | Percent Growth ([3]; Log10 Concentration −8.0 Molar): 73% | TGI [4]: 2.45E−5 Molar | GI50 ([4]; Homo sapiens): 1.98 µM | LC50 ([4]; Homo sapiens): > 100 µM | Mean Optical Densities ([4]; Log10 Concentration −4.0 Molar): 0.490 | Percent Growth ([4]; Log10 Concentration −4.0 Molar): −30% | Mean Optical Densities ([4]; Log10 Concentration −5.0 Molar): 0.744 | Percent Growth ([4]; Log10 Concentration −5.0 Molar): 19% | Mean Optical Densities ([4]; Log10 Concentration −6.0 Molar): 0.846 | Percent Growth ([4]; Log10 Concentration −6.0 Molar): 63% | Mean Optical Densities ([4]; Log10 Concentration −7.0 Molar): 0.947 | Percent Growth ([4]; Log10 Concentration −7.0 Molar): 107% | Mean Optical Densities ([4]; Log10 Concentration −8.0 Molar): 0.971 | Percent Growth ([4]; Log10 Concentration −8.0 Molar): 117% | inhibition of VEGF protein levels relative to the hypoxia-induced positive control ([5]; 12-well, p<0.01): significantly inhibit | reduction of secreted VEGF protein induced by hypoxia ([5]; 96-well, 1 at 100 nM, 2 at 10 nM, PD98059 at 100 μM): statistically significant reduction | relative potency in reducing the level of secreted VEGF protein ([5]; hypoxia): ten times more potent than 1 | TGI [6]: 8.25E−5 Molar | GI50 ([6]; Homo sapiens): 2.51 µM | CC50 [6, 9]: > 100 µM | Mean Optical Densities ([6]; Log10 Concentration −4.0 Molar): 0.970 | Percent Growth ([6]; Log10 Concentration −4.0 Molar): −2% | Mean Optical Densities ([6]; Log10 Concentration −5.0 Molar): 1.180 | Percent Growth ([6]; Log10 Concentration −5.0 Molar): 25% | Mean Optical Densities ([6]; Log10 Concentration −6.0 Molar): 1.479 | Percent Growth ([6]; Log10 Concentration −6.0 Molar): 66% | Mean Optical Densities ([6]; Log10 Concentration −7.0 Molar): 1.478 | Percent Growth ([6]; Log10 Concentration −7.0 Molar): 66% | Mean Optical Densities ([6]; Log10 Concentration −8.0 Molar): 1.447 | Percent Growth ([6]; Log10 Concentration −8.0 Molar): 62% | TGI [7]: >1.00E−4 Molar | GI50 ([7]; Homo sapiens): 6.51 µM | CC50 [7, 9]: > 100 µM | Mean Optical Densities ([7]; Log10 Concentration −4.0 Molar): 0.396 | Percent Growth ([7]; Log10 Concentration −4.0 Molar): 25% | Mean Optical Densities ([7]; Log10 Concentration −5.0 Molar): 0.544 | Percent Growth ([7]; Log10 Concentration −5.0 Molar): 42% | Mean Optical Densities ([7]; Log10 Concentration −6.0 Molar): 0.949 | Percent Growth ([7]; Log10 Concentration −6.0 Molar): 87% | Mean Optical Densities ([7]; Log10 Concentration −7.0 Molar): 1.012 | Percent Growth ([7]; Log10 Concentration −7.0 Molar): 94% | Mean Optical Densities ([7]; Log10 Concentration −8.0 Molar): 0.955 | Percent Growth ([7]; Log10 Concentration −8.0 Molar): 88% | TGI [8]: >1.00E−4 Molar | LC50 (concentration killing 50% of cells) ([8]; Homo sapiens, K562): > 100 µM | Mean Optical Densities ([8]; Log10 Concentration −4.0 Molar): 0.327 | Percent Growth ([8]; Log10 Concentration −4.0 Molar): 28% | Mean Optical Densities ([8]; Log10 Concentration −5.0 Molar): 0.394 | Percent Growth ([8]; Log10 Concentration −5.0 Molar): 37% | Mean Optical Densities ([8]; Log10 Concentration −6.0 Molar): 0.561 | Percent Growth ([8]; Log10 Concentration −6.0 Molar): 61% | Mean Optical Densities ([8]; Log10 Concentration −7.0 Molar): 0.500 | Percent Growth ([8]; Log10 Concentration −7.0 Molar): 53% | Mean Optical Densities ([8]; Log10 Concentration −8.0 Molar): 0.470 | Percent Growth ([8]; Log10 Concentration −8.0 Molar): 48%
